pIC50, pKi: −log10 of the molar value. Where a name gives a salt, the structure may show the parent alone.
Key:
[1] = biological target: T1, human H4 receptor (Homo sapiens, UniProt Q9H3N8); assay: biochemical
[2] = biological target: T1, human H4 receptor; assay: biochemical; remark: listed apart in the source
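Throughout, for pIC50: membranes from SH-SY5Y cells with stable human H4 receptor expression, incubated with GDP 10 µM, radioactivity retained on filters counted by liquid scintillation.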
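Throughout, for pKi: radioligand displacement of a [3H]-labelled ligand from membranes of CHO cells stably expressing human H4 receptor, bound radioactivity counted on filters by liquid scintillation.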

T1 sequence (Q9H3N8 whole entry): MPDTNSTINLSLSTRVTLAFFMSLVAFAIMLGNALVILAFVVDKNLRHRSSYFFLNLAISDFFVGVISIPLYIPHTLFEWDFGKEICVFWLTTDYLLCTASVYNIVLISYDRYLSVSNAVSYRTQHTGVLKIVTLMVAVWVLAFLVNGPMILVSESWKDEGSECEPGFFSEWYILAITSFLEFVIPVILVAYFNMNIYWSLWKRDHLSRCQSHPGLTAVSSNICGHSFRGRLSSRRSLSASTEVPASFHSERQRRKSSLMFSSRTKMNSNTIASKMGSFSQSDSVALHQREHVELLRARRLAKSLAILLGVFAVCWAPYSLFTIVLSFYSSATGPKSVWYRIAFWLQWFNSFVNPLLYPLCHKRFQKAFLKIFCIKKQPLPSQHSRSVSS

| Compound | pKi [1] | pIC50 [2] |
| --- | --- | --- |
| Cc1ccc(-c2cn3c(n2)C(OC2CCN(C)CC2)c2ccccc2CC3)c(Cl)c1 (stereo not drawn) [Example 75, 2-(2-chloro-4-methylphenyl)-4-(1-methylpiperidin-4-yloxy)-9,10-dihydro-4H-3,10a-diaza-benzo[f]azulene oxalate] | > 6.52 | > 7.52 |
| Cc1cccc(-c2cn3c(n2)C(OC2CCN(C)CC2)c2ccccc2CC3)c1 (stereo not drawn) [Example 6, 4-(1-methyl-piperidin-4-yloxy)-2-m-tolyl-9,10-dihydro-4H-3,10a-diaza-benzo[f]azulene] | > 6.52 | > 6.52 |
| CCc1ccc(-c2cn3c(n2)C(OC2CCN(C)CC2)c2ccccc2CC3)cc1 (stereo not drawn) [Example 21, 2-(4-ethylphenyl)-4-(1-methylpiperidin-4-yloxy)-9,10-dihydro-4H-3,10a-diaza-benzo[f]azulene] | > 6.52 | > 7.52 |
| CN1CCC(OC2c3ccccc3CCn3cc(-c4ccc(C(F)(F)F)cc4)nc32)CC1 (stereo not drawn) [Example 25, 4-(1-methylpiperidin-4-yloxy)-2-(4-trifluoromethylphenyl)-9,10-dihydro-4H-3,10a-diaza-benzo[f]azulene] | > 7.52 | > 7.52 |
| Cc1ccc(-c2cn3c(n2)C(OC2CCN(C)CC2)c2ccccc2CC3)c(F)c1 (stereo not drawn) [Example 82, 2-(2-fluoro-4-methylphenyl)-4-(1-methylpiperidin-4-yloxy)-9,10-dihydro-4H-3,10a-diaza-benzo[f]azulene] | > 6.52 | > 7.52 |
| CN1CCC(OC2c3ccccc3CCn3cc(-c4ccc(C(=O)OC(C)(C)C)cc4)nc32)CC1 (stereo not drawn) [Example 36, 4-[4-(1-methylpiperidin-4-yloxy)-9,10-dihydro-4H-3,10a-diaza-benzo[f]azulen-2-yl]-benzoic acid tert-butyl ester] | > 7.52 | > 7.52 |
| CN1CCC(OC2c3ccccc3CCn3cc(-c4cccc(F)c4)nc32)CC1 (stereo not drawn) [Example 68, 2-(3-fluorophenyl)-4-(1-methylpiperidin-4-yloxy)-9,10-dihydro-4H-3,10a-diaza-benzo[f]azulene oxalate] | > 7.52 | > 6.52 |
| Cc1c(-c2ccc(Br)cc2)nc2n1CCc1ccccc1C2OC1CCN(C)CC1 (stereo not drawn) [Example 122, 2-(4-bromophenyl)-1-methyl-4-(1-methylpiperidin-4-yloxy)-9,10-dihydro-4H-3,10a-diaza-benzo[f]azulene] | > 7.52 | > 7.52 |
| CN1CCC(OC2c3ccccc3CCn3cc(-c4ccc5c(c4)OCO5)nc32)CC1 (stereo not drawn) [Example 50, 2-benzo[1,3]dioxol-5-yl-4-(1-methylpiperidin-4-yloxy)-9,10-dihydro-4H-3,10a-diaza-benzo[f]azulene] | > 7.52 | > 6.00 |
| CN1CCC(OC2c3ccccc3CCn3cc(C=CC4CC4)nc32)CC1 (stereo not drawn) [Example 99, 2-(2-cyclopropylvinyl)-4-(1-methylpiperidin-4-yloxy)-9,10-dihydro-4H-3,10a-diaza-benzo[f]azulene oxalate] | > 6.52 | > 6.52 |
| CN1CCC(OC2c3ccccc3CCn3cc(-c4ccc(NC(=O)OC(C)(C)C)cc4)nc32)CC1 (stereo not drawn) [Example 49, {4-[4-(1-methylpiperidin-4-yloxy)-9,10-dihydro-4H-3,10a-diaza-benzo[f]azulen-2-yl]-phenyl}-carbamic acid tert-butyl ester] | > 7.52 | > 6.52 |
| CN1CCC(OC2c3ccccc3CCn3c2nc(I)c3I)CC1 (stereo not drawn) [Example 219, 1,2-diiodo-4-(1-methylpiperidin-4-yloxy)-9,10-dihydro-4H-3,10a-diaza-benzo[f]azulene] | > 7.52 | > 7.52 |
| CC(=O)c1ccc(-c2cn3c(n2)C(OC2CCN(C)CC2)c2ccccc2CC3)cc1 (stereo not drawn) [Example 11, 1-{4-[4-(1-methylpiperidin-4-yloxy)-9,10-dihydro-4H-3,10a-diaza-benzo[f]azulen-2-yl]-phenyl}ethanone] | > 7.52 | > 6.52 |
| CN1CCC(OC2c3ccccc3CCn3cc(-c4ccccc4Cl)nc32)CC1 (stereo not drawn) [Example 26, 2-(2-chlorophenyl)-4-(1-methylpiperidin-4-yloxy)-9,10-dihydro-4H-3,10a-diaza-benzo[f]azulene oxalate] | > 7.52 | > 6.52 |
| CCCCc1ccc(-c2cn3c(n2)C(OC2CCN(C)CC2)c2ccccc2CC3)cc1 (stereo not drawn) [Example 41, 2-(4-butylphenyl)-4-(1-methylpiperidin-4-yloxy)-9,10-dihydro-4H-3,10a-diaza-benzo[f]azulene oxalate] | > 7.52 | > 6.52 |
| CN1CCC(OC2c3ccccc3CCn3cc(C=CC(C)(C)C)nc32)CC1 (stereo not drawn) [Example 93, 2-(3,3-dimethylbut-1-enyl)-4-(1-methylpiperidin-4-yloxy)-9,10-dihydro-4H-3,10a-diaza-benzo[f]azulene] | > 7.52 | > 7.52 |
| CN1CCC(OC2c3ccccc3CCn3cc(SC4CCCC4)nc32)CC1 (stereo not drawn) [Example 86, 2-cyclopentylsulfanyl-4-(1-methylpiperidin-4-yloxy)-9,10-dihydro-4H-3,10a-diaza-benzo[f]azulene oxalate] | > 6.52 | > 7.52 |
| CN1CCC(OC2c3ccccc3CCn3cc(C=Cc4ccsc4)nc32)CC1 (stereo not drawn) [Example 112, 4-(1-methylpiperidin-4-yloxy)-2-(2-thiophen-3-ylvinyl)-9,10-dihydro-4H-3,10a-diaza-benzo[f]azulene] | > 7.52 | > 7.52 |
| Cc1c(-c2ccc(SCc3ccccc3)cc2)nc2n1CCc1ccccc1C2OC1CCN(C)CC1 (stereo not drawn) [Example 164, 2-(4-benzylsulfanylphenyl)-1-methyl-4-(1-methylpiperidin-4-yloxy)-9,10-dihydro-4H-3,10a-diaza-benzo[f]azulene oxalate] | > 7.52 | > 7.52 |
| CCc1c(-c2ccccc2)nc2n1CCc1ccccc1C2OC1CCN(C)CC1 (stereo not drawn) [Example 120, 1-ethyl-4-(1-methylpiperidin-4-yloxy)-2-phenyl-9,10-dihydro-4H-3,10a-diaza-benzo[f]azulene oxalate] | > 7.52 | > 7.52 |
| Cc1c(C2=CCCCC2)nc2n1CCc1ccccc1C2OC1CCN(C)CC1 (stereo not drawn) [Example 226, 2-cyclohex-1-enyl-1-methyl-4-(1-methylpiperidin-4-yloxy)-9,10-dihydro-4H-3,10a-diaza-benzo[f]azulene] | > 7.52 | > 7.52 |
| Cc1c(-c2ccccc2)nc2n1CCc1ccccc1C2OC1CCN(C)CC1 (single isomer, unassigned) [Example 135B, 1-methyl-4-(1-methyl-piperidin-4-yloxy)-2-phenyl-9,10-dihydro-4H-3,10a-diaza-benzo[f]azulene] | > 7.52 | > 7.52 |
| CN1CCC(OC2c3ccccc3CCn3cc(CCCCc4ccccc4)nc32)CC1 (stereo not drawn) [Example 129, 4-(1-methylpiperidin-4-yloxy)-2-(4-phenylbutyl)-9,10-dihydro-4H-3,10a-diaza-benzo[f]azulene oxalate] | > 7.52 | > 7.52 |
| Cc1c(-c2ccc(SC(C)(C)CCO)cc2)nc2n1CCc1ccccc1C2OC1CCN(C)CC1 (stereo not drawn) [Example 152, 3-methyl-3-{4-[1-methyl-4-(1-methylpiperidin-4-yloxy)-9,10-dihydro-4H-3,10a-diaza-benzo[f]azulen-2-yl]-phenylsulfanyl}-butan-1-ol] | > 7.52 | > 7.52 |
